The data set relates to stem cell derived hepatocytes. Description: Hepatocyte function with Cameron and Avior procedures on laminin-221/laminin-521 substrates (Example 3). The format is cell-based, human. From the text: Stem-cell derived hepatocytes were produced from human embryonic stem cells on three different substrates. The first substrate was pure laminin-521 (LN-521). The second substrate was a mix of laminin-521 and laminin-221 in a weight ratio of 1:3 (221 (1:3)). The third substrate was a mix of laminin-221 and laminin-521 in a weight ratio of 1:1 (221 (1:1)). The Cameron procedure and the Avior procedure were compared to each other.
FIG. 13 is a set of two bar graphs showing hepatocyte function of the two procedures. […] Such benefits were not observed using both MK4 and LCA.

Read-outs that look alike come from different tables or passages of the source.

In the case of `C[C@H](CCC(=O)O)[C@H]1CC[C@H]2[C@@H]3CC[C@@H]4C[C@H](O)CC[C@]4(C)[C@H]3CC[C@]12C` [LCA, lithocholic acid], the “toxic effects on stem cell derived hepatocytes” value (Avior procedure, LCA and MK4 together, cell death at day 18) is “major toxic effects”.

As for `CC(C)=CCC/C(C)=C/CC/C(C)=C/CC/C(C)=C/CC1=C(C)C(=O)c2ccccc2C1=O` [MK4, vitamin K (MK4)], the “toxic effects on stem cell derived hepatocytes” value is “major toxic effects”.

(Values after patent US10683486B2, “Methods for producing hepatocytes” (BioLamina AB, priority 2015, dated 2020).)
